Patent publication US6730674B2, “Sulfonyl pyridazinone compounds useful as aldose reductase inhibitors” (Pfizer Inc, priority 2001, dated 2004)

| melting point | SMILES |
| --- | --- |
| > 250 °C | O=c1ccc(S(=O)(=O)c2c(F)cc(F)cc2Cl)n[nH]1 [Example 4N, 6-(2-Chloro-4,6-difluoro-benzenesulfonyl)-2H-pyridazin-3-one] |
| > 250 °C | Cc1cc(Cl)cc(S(=O)(=O)c2ccc(=O)[nH]n2)c1 [Example 4M, 6-(3-Chloro-5-methyl-benzenesulfonyl)-2H-pyridazin-3-one] |
| 166 to 168 °C | O=c1ccc(S(=O)(=O)c2ccc(Cl)c(Cl)c2)n[nH]1 [Example 4D, 6-(3,4-Dichloro-benzenesulfonyl)-2H-pyridazin-3-one] |
| > 220 °C | O=c1ccc(S(=O)(=O)c2cccc(Br)c2)n[nH]1 [Example 4I, 6-(3-Bromo-benzenesulfonyl)-2H-pyridazin-3-one] |
